Measurements as given in US11759460B2, “Method of local antibiotic treatment of infective endocarditis” (priority 2020, dated 2023).
Values after ≈ are worked out from the molar mass of the structure shown. “Also recorded” adds a separate entry of the source. Where two headings read alike, the source gives them in different places.

Columns and labels:
S. aureus biofilms = test: Single antibiotic treatment of S. aureus biofilms (SGT method); assay type: cell-based, Staphylococcus aureus; details: for biofilm bactericidal concentration (BBC): S. aureus biofilms grown 48 h, 24 h treatment, 3 log10 CFU (99.9%) reduction vs control
Description: (§1) FIGS. 1A and 1B illustrates effects of different antibiotics tested in a dose-dependent manner against bacterial biofilms of different isolates of S. aureus and E. faecalis using only one antibiotic per treatment to screen the effect of the single antibiotics against bacterial biofilms. The graphs show the decadic logarithm of the colony forming units (log10 CFU) of either S. aureus or E. faecalis on the ordinate in relation to the concentration of various antibiotics on the abscissa. Data points belonging to one antibiotic were connected by lines for clarity. In each graph, the dashed line reflects the biofilm bactericidal concentration (BBC), defined as the target of 3 log10 CFU below the control, i.e. the log10 CFU of untreated biofilms (shown at the antibiotic concentration of 0 mg/L), which needs to be undercut to achieve a meaningful suppression of the bacteria in a biofilm of ≥99.9%. The line graphs intersecting this line indicate the antibiotics' concentrations that need to be applied for effective treatment in S. aureus and E. faecalis biofilms. […] For instance, the BBC of rifampicin against S. aureus is ˜4 mg/L; the BBC of dalbavancin is ˜32 mg/L against E. faecalis in biofilms.
FIGS. 1A and 1B illustrate the effect of different antibiotics tested in a dose-depended manner against bacterial biofilms of different bacterial isolates of S. aureus and E. faecalis using only one antibiotic per treatment to screen the effect of the single antibiotics against bacterial biofilms. To obtain the results the inventors used four strains of S. aureus, i.e. three patient isolates and one reference strain, and three strains of E. faecalis, i.e. two isolates from patients as well as one reference strain. In order to test the different antibiotics individually against the bacterial biofilms, the inventors incubated bacterial suspensions of E. faecalis and S. aureus strains in a 96 well microtiter plate for biofilm formation for 48 hours in a humidified modified atmosphere at 37° C. and 5% CO2 without shaking. For the antibiotic treatment of the biofilms the supernatant of each well was removed and the antibiotic treatment with the individual antibiotics to be tested was added to the biofilms and incubated for 24 hours at the same conditions. The number of bacteria in each well after the 24-hour treatment was determined via so called start-growth-time (SGT) method, where the bacterial regrowth of the dispersed bacteria from the biofilms was measured in an incubation chamber of a plate reader over time. Lower bacteria densities lead to a longer regrowth time to reach a certain threshold compared to controls. Each treatment for each strain was performed in three technical replicates. […]

E. faecalis biofilms = test: Single antibiotic treatment of E. faecalis biofilms (SGT method); assay type: cell-based, Enterococcus faecalis; details: for biofilm bactericidal concentration (BBC): E. faecalis biofilms grown 48 h, 24 h treatment, 3 log10 CFU (99.9%) reduction vs control
Description: as §1
FIGS. 1A and 1B illustrate the effect of different antibiotics tested in a dose-depended manner against bacterial biofilms of different bacterial isolates of S. aureus and E. faecalis using only one antibiotic per treatment to screen the effect of the single antibiotics against bacterial biofilms. To obtain the results the inventors used four strains of S. aureus, i.e. three patient isolates and one reference strain, and three strains of E. faecalis, i.e. two isolates from patients as well as one reference strain. […] The number of bacteria in each well after the 24-hour treatment was determined via so called start-growth-time (SGT) method, where the bacterial regrowth of the dispersed bacteria from the biofilms was measured in an incubation chamber of a plate reader over time. […]

[1] = cited from earlier work
planktonic S. aureus = test: Minimal inhibitory concentration for planktonic S. aureus; assay type: cell-based; details: Staphylococcus aureus
[2] = system: planctonic Enterococcus faecalis; test: Minimal inhibitory concentration for planktonic Enterococcus faecalis; assay type: cell-based
[3] = systemic therapy, 'believed to be'

| MIC (planktonic S. aureus) [µg/mL] | Compound | biofilm bactericidal concentration (BBC) (S. aureus biofilms) | biofilm bactericidal concentration (BBC) (E. faecalis biofilms) | approximate concentration in tissue with systemic therapy [1, 3] [mg/L] | further results |
| --- | --- | --- | --- | --- | --- |
|  | NCC[C@H](O)C(=O)N[C@@H]1C[C@H](N)[C@@H](O[C@H]2O[C@H](CN)[C@@H](O)[C@H](O)[C@H]2O)[C@H](O)[C@H]1O[C@H]1O[C@H](CO)[C@@H](O)[C@H](N)[C@H]1O [Amikacin, amikacin] | > 512 mg/L |  |  |  |
|  | C[C@@H]1O[C@@H]1P(=O)(O)O [phosphomycin] |  | > 1024 mg/L |  |  |
|  | CN[C@H](CC(C)C)C(=O)N[C@H]1C(=O)N[C@@H](CC(N)=O)C(=O)N[C@H]2C(=O)N[C@H]3C(=O)N[C@H](C(=O)N[C@H](C(=O)O)c4cc(O)cc(O)c4-c4cc3ccc4O)[C@H](O)c3ccc(c(Cl)c3)Oc3cc2cc(c3O[C@@H]2O[C@H](CO)[C@@H](O)[C@H](O)[C@H]2O[C@H]2C[C@](C)(N)[C@H](O)[C@H](C)O2)Oc2ccc(cc2Cl)[C@H]1O [vancomycin] |  |  | ~1 |  |
| ~0.004 (≈ 0.00486 µM) | CO[C@H]1/C=C/O[C@@]2(C)Oc3c(C)c(O)c4c(O)c(c(/C=N/N5CCN(C)CC5)c(O)c4c3C2=O)NC(=O)/C(C)=C\C=C\[C@H](C)[C@H](O)[C@@H](C)[C@@H](O)[C@@H](C)[C@H](OC(C)=O)[C@@H]1C [rifampicin] | ~4 mg/L |  | ~1 |  |
|  | CN[C@H]1C(=O)N[C@@H]2Cc3ccc(cc3)Oc3cc4cc(c3O[C@@H]3O[C@H](C(=O)O)[C@@H](O)[C@H](O)[C@H]3NC(=O)CCCCCCCCC(C)C)Oc3ccc(cc3Cl)[C@@H](O)[C@@H]3NC(=O)[C@H](NC(=O)[C@@H]4NC(=O)[C@@H](NC2=O)c2cc(cc(O)c2Cl)Oc2cc1ccc2O)c1ccc(O)c(c1)-c1c(O[C@H]2O[C@H](CO)[C@@H](O)[C@H](O)[C@@H]2O)cc(O)cc1[C@@H](C(=O)NCCCN(C)C)NC3=O [dalbavancin] | about 4 mg/L |  |  |  |
| ~0.25 (≈ 0.154 µM) | CCCCCCCCCC(=O)N[C@@H](Cc1c[nH]c2ccccc12)C(=O)N[C@H](CC(N)=O)C(=O)N[C@@H](CC(=O)O)C(=O)N[C@@H]1C(=O)NCC(=O)N[C@@H](CCCN)C(=O)N[C@@H](CC(=O)O)C(=O)N[C@H](C)C(=O)N[C@@H](CC(=O)O)C(=O)NCC(=O)N[C@H](CO)C(=O)N[C@@H]([C@H](C)CC(=O)O)C(=O)N[C@@H](CC(=O)c2ccccc2N)C(=O)O[C@@H]1C [daptomycin] |  | about 32 mg/L |  | approximate concentration in tissue with systemic therapy ([1]; in vivo): ~4 mg/L; suppression of bacteria in biofilms (in words) (E. faecalis biofilms; E. faecalis biofilms, single antibiotic): can suppress the bacteria sufficiently; also recorded: highest potency; suppression of bacteria in biofilms (in words) (S. aureus biofilms; S. aureus biofilms, single antibiotic): can suppress the bacteria sufficiently; also recorded: highest potency; MIC [2]: ~0.25 µg/mL (≈ 0.154 µM) |
